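1) Cells in 96-well plates. 2) Compound, 48 h, 5 concentrations. 3) Linear interpolation between surrounding doses. 4) Unreached endpoint = highest concentration. GI50 is the concentration that inhibits growth by half.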 The source made the active and inactive calls. Rule as the data show it: active = GI50 up to about 1.1 µM and inactive = higher.
Tests used:
Test in all cases: NCI-60 cell line screen, 48 h
A549 = tested on: A549
UACC-257 = tested on: UACC-257
OVCAR-3 = tested on: OVCAR-3
IGROV-1 = tested on: IGROV-1
MDA-MB-435 = tested on: MDA-MB-435
TK-10 = tested on: TK-10
NCI-H522 = tested on: NCI-H522
SR = tested on: SR
M14 = tested on: M14
Hs-578T = tested on: Hs-578T
EKVX = tested on: EKVX
ACHN = tested on: ACHN
MCF7 = tested on: MCF7
RXF 393 = tested on: RXF 393
OVCAR-5 = tested on: OVCAR-5
SF-295 = tested on: SF-295
786-0 = tested on: 786-0
SK-MEL-28 = tested on: SK-MEL-28
SK-OV-3 = tested on: SK-OV-3
Malme-3M = tested on: Malme-3M

SMILES	GI50 (A549)	GI50 (UACC-257)	GI50 (OVCAR-3)	GI50 (IGROV-1)	GI50 (MDA-MB-435)	GI50 (TK-10)	GI50 (NCI-H522)	GI50 (SR)	GI50 (M14)	GI50 (Hs-578T)	GI50 (EKVX)	GI50 (ACHN)	GI50 (MCF7)	GI50 (RXF 393)	GI50 (OVCAR-5)	GI50 (SF-295)	GI50 (786-0)	GI50 (SK-MEL-28)	GI50 (SK-OV-3)	GI50 (Malme-3M)
OC(c1cccs1)c1cc2ccccc2s1 (centres undefined)	> 10 µM (inactive)	> 10 µM (inactive)	> 10 µM (inactive)	> 10 µM (inactive)	> 10 µM (inactive)	> 10 µM (inactive)	> 10 µM (inactive)	> 10 µM (inactive)	> 10 µM (inactive)	> 10 µM (inactive)	> 10 µM (inactive)	> 10 µM (inactive)	> 10 µM (inactive)	> 10 µM (inactive)	> 10 µM (inactive)	> 10 µM (inactive)	> 10 µM (inactive)	> 10 µM (inactive)	> 10 µM (inactive)	–
CC(=O)Oc1cc(OC(C)=O)c2c(c1C)CC[C@@H]1[C@@H]2CC[C@]2(C)[C@@H](OC(C)=O)CC[C@@H]12	18.5 µM (inactive)	17.7 µM (inactive)	17.3 µM (inactive)	17.2 µM (inactive)	16.7 µM (inactive)	20 µM (inactive)	16.7 µM (inactive)	16.8 µM (inactive)	19.5 µM (inactive)	21.9 µM (inactive)	14.8 µM (inactive)	17.5 µM (inactive)	19.3 µM (inactive)	13.1 µM (inactive)	> 10 µM (inactive)	23 µM (inactive)	19.8 µM (inactive)	19 µM (inactive)	–	15.6 µM (inactive)
CC(=O)O[C@H]1CC[C@@]2(C)C(=CC[C@@H]3[C@@H]2CC[C@]2(C)c4c(C)nn(-c5ccccc5)c4C[C@@H]32)C1	35.9 µM (inactive)	29.9 µM (inactive)	28.7 µM (inactive)	43.4 µM (inactive)	45.7 µM (inactive)	22.8 µM (inactive)	13.7 µM (inactive)	13 µM (inactive)	53.8 µM (inactive)	11.2 µM (inactive)	14.9 µM (inactive)	19.5 µM (inactive)	32.8 µM (inactive)	5.42 µM (inactive)	22.2 µM (inactive)	3.55 µM (inactive)	13.6 µM (inactive)	25.5 µM (inactive)	20.6 µM (inactive)	–
Cc1cc2c(cc1-c1cc3c(cc1C)C(C(C)C)=C(O)C(=O)/C3=C\Nc1ccccn1)/C(=C/Nc1ccccn1)C(=O)C(O)=C2C(C)C	31.3 µM (inactive)	> 100 µM (inactive)	34.3 µM (inactive)	31.1 µM (inactive)	43.5 µM (inactive)	> 100 µM (inactive)	21.8 µM (inactive)	42.7 µM (inactive)	87.5 µM (inactive)	32 µM (inactive)	37.8 µM (inactive)	43.3 µM (inactive)	52.5 µM (inactive)	45.5 µM (inactive)	> 100 µM (inactive)	49.9 µM (inactive)	52.2 µM (inactive)	58.2 µM (inactive)	–	21.6 µM (inactive)
Cc1ccc2nc(Cl)c(/C=N/N3C(=O)/C(=C/c4ccccc4S)N=C3c3ccccc3)cc2c1	33.4 µM (inactive)	68.5 µM (inactive)	4.8 µM (inactive)	29.1 µM (inactive)	12.6 µM (inactive)	48.6 µM (inactive)	–	7.96 µM (inactive)	23.3 µM (inactive)	22.3 µM (inactive)	59.7 µM (inactive)	46.6 µM (inactive)	26.9 µM (inactive)	–	> 100 µM (inactive)	25.3 µM (inactive)	54 µM (inactive)	> 100 µM (inactive)	22.2 µM (inactive)	–
CCOC(=O)c1c(NC(=O)c2ccc(OC)cc2)sc2c1CCCC2	> 100 µM (inactive)	> 100 µM (inactive)	> 100 µM (inactive)	> 100 µM (inactive)	> 100 µM (inactive)	> 100 µM (inactive)	–	> 100 µM (inactive)	> 100 µM (inactive)	> 100 µM (inactive)	> 100 µM (inactive)	> 100 µM (inactive)	> 100 µM (inactive)	> 100 µM (inactive)	> 100 µM (inactive)	> 100 µM (inactive)	> 100 µM (inactive)	> 100 µM (inactive)	–	–
Cn1cnc2c(OCC3CCCCC3)nc(N)nc21	> 100 µM (inactive)	> 100 µM (inactive)	> 100 µM (inactive)	36.5 µM (inactive)	> 100 µM (inactive)	> 100 µM (inactive)	> 100 µM (inactive)	–	> 100 µM (inactive)	> 100 µM (inactive)	> 100 µM (inactive)	< 0.01 µM (active)	11.7 µM (inactive)	> 100 µM (inactive)	> 100 µM (inactive)	> 100 µM (inactive)	> 100 µM (inactive)	> 100 µM (inactive)	> 100 µM (inactive)	> 100 µM (inactive)
